Measurements: US12479887B2, “Inhibitors for protein n-terminal methyltransferase and uses thereof” (Purdue Research Foundation, priority 2018, dated 2025)
Read-outs that look alike come from different tables or passages of the source. Non-standard residues stand in square brackets, D forms with d. Residues, ends and D or L forms follow the SMILES beside them. *: point of attachment. Acetyl(1-naphthyl) = O=C(Cc1cccc2ccccc12)*; dHpg = N[C@@H](C(=O)O)c1ccc(O)cc1; Hpg = N[C@H](C(=O)O)c1ccc(O)cc1; Pra = C#CC[C@H](N)C(=O)O; X1 = O=C(Cc1ccc(O)cc1)*; ClAc = O=C(CCl)*

Biological target: N-terminal methyltransferase1 (NTMT1) (Homo sapiens (Human), UniProt Q9BV86)
Sequence (Q9BV86 1-222): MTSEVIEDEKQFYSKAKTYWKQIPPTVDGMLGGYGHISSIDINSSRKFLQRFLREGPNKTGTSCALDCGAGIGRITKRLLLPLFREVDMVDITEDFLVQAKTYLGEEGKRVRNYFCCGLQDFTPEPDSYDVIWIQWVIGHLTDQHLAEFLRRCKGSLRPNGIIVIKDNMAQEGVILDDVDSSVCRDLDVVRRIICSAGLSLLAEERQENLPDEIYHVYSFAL
Assay: NTMT1 inhibition IC50, SAH hydrolase-coupled fluorescence assay
Format: biochemical
Protocol: The inhibitors ranging in concentration from (2 μL of 0.14 μM-1 mM) and following a three-fold dilution were incubated with 0.2 μM NTMT1 with a reaction mixture which was added in the following order: H2O, 10× Tris-HCl Buffer (2 μL of 250 mM Tris pH 7.4, 100 mM NaCl, and 500 mM KCl), SAH hydrolase (1 μL of 100 μM), SAM (0.2 μL of 10 mM), NTMT1 (1 μL of 4 μM) and ThioGlo1 (0.2 μL of 1.5 mM DMSO solution). After 10 mins of incubation at 37° C., the reaction was initiated with 1 μM of GPKRIA. Fluorescence intensity was monitored using a BMG ClarioStar microplate reader (Ex=380 nm, Em=510 nm) at 37° C. for 15 min. The rates were fit to the log[inhibitor] vs response model using least squares nonlinear regression through GraphPad Prism 7 software. All experiments were performed in triplicate.

[1] = 0.2 μM NTMT1, 1 μM GPKRIA peptide substrate, 37° C., ThioGlo1 fluorescence

Compound | IC50 [nM] | IC50 [1] [nM]
N=C(N)NCCC[C@H](NC(=O)[C@H](CCCCN)NC(=O)[C@@H]1CCCN1C(=O)Cc1cccc2ccccc12)C(N)=O [Compound 1, (S)—N—((S)-6-amino-1-(((S)-1-amino-5-guanidino-1-oxopentan-2-yl)amino)-1-oxohexan-2-yl)-1-(2-(naphthalen-1-yl)acetyl)pyrrolidine-2-carboxamide] | 400 ± 30 | –
N=C(N)NCCC[C@H](NC(=O)[C@H](CCCCN)NC(=O)[C@@H]1CCCN1C(=O)Cc1cccc2[nH]ccc12)C(N)=O [Compound 4, (S)-1-(2-(1H-indol-4-yl)acetyl)-N—((S)-6-amino-1-(((S)-1-amino-5-guanidino-1-oxopentan-2-yl)amino)-1-oxohexan-2-yl)pyrrolidine-2-carboxamide] | – | 160 ± 70
NCCCC[C@H](NC(=O)CN(C(=O)Cc1cccc2ccccc12)C1CCCC1)C(N)=O [Compound 10, (S)-6-amino-2-(2-(N-cyclopentyl-2-(naphthalen-1-yl)acetamido)acetamido)hexanamide] | – | > 100000
NCCCC[C@H](NC(=O)c1cn(CC(=O)Nc2ccccc2)nn1)C(N)=O [Compound 11, (S)—N-(1,6-diamino-1-oxohexan-2-yl)-1-(2-oxo-2-(phenylamino)ethyl)-1H-1,2,3-triazole-4-carboxamide] | – | > 100000
N=C(N)NCCC[C@H](NC(=O)[C@H](CCCCN)NC(=O)[C@@H]1CCCN1C(=O)[C@@H]1CCCN1C(=O)CCl)C(=O)O [Compound 12, (2-chloroacetyl)-L-prolyl-L-prolyl-L-lysyl-L-arginine] (ClAc-PPKR-OH) | – | 16000 ± 5900
N=C(N)NCCC[C@H](NC(=O)[C@H](CCCCN)NC(=O)[C@@H]1CCCN1C(=O)/C=C/c1ccc(O)cc1)C(N)=O [Compound 17, (S)—N—((S)-6-amino-1-(((S)-1-amino-5-guanidino-1-oxopentan-2-yl)amino)-1-oxohexan-2-yl)-1-((E)-3-(4-hydroxyphenyl)acryloyl)pyrrolidine-2-carboxamide] | 2500 | –
N=C(N)NCCC[C@H](NC(=O)[C@H](CCCCN)NC(=O)[C@@H]1CCCN1C(=O)Cc1ccc(CO)cc1)C(N)=O [Compound 18, (S)—N—((S)-6-amino-1-(((S)-1-amino-5-guanidino-1-oxopentan-2-yl)amino)-1-oxohexan-2-yl)-1-(2-(4-(hydroxymethyl)phenyl)acetyl)pyrrolidine-2-carboxamide] | – | 1500
N=C(N)NCCC[C@H](NC(=O)[C@H](CCCCN)NC(=O)[C@@H]1CCCN1C(=O)[C@H](NC(=O)Cc1ccc(O)cc1)c1ccc(O)cc1)C(N)=O [Compound 21, (S)—N—((S)-6-amino-1-(((S)-1-amino-5-guanidino-1-oxopentan-2-yl)amino)-1-oxohexan-2-yl)-1-((R)-2-(4-hydroxyphenyl)-2-(2-(4-hydroxyphenyl)acetamido)acetyl)pyrrolidine-2-carboxamide] (X1-[dHpg]PKR-NH2) | > 100000 | –
N=C(N)NCCC[C@H](NC(=O)[C@H](CCCCN)NC(=O)[C@@H]1CCCN1C(=O)[C@@H](NC(=O)Cc1ccc(O)cc1)c1ccc(O)cc1)C(N)=O [Compound 22, (S)—N—((S)-6-amino-1-(((S)-1-amino-5-guanidino-1-oxopentan-2-yl)amino)-1-oxohexan-2-yl)-1-((S)-2-(4-hydroxyphenyl)-2-(2-(4-hydroxyphenyl)acetamido)acetyl)pyrrolidine-2-carboxamide] (X1-[Hpg]PKR-NH2) | > 100000 | –
N=C(N)NCCC[C@H](NC(=O)[C@H](CCCCN)NC(=O)[C@@H]1CCCN1C(=O)[C@H](NCCc1ccc(O)cc1)c1ccc(O)cc1)C(N)=O [Compound 23, (S)—N—((S)-6-amino-1-(((S)-1-amino-5-guanidino-1-oxopentan-2-yl)amino)-1-oxohexan-2-yl)-1-((R)-2-((4-hydroxyphenethyl)amino)-2-(4-hydroxyphenyl)acetyl)pyrrolidine-2-carboxamide] | > 100000 | –
CC[C@H](C)[C@H](NC(=O)[C@H](CCCNC(=N)N)NC(=O)[C@H](CCCCN)NC(=O)[C@@H]1CCCN1C(=O)Cc1cccc2ccccc12)C(N)=O [Compound 24, (S)—N—((S)-6-amino-1-(((S)-1-(((2S,3S)-1-amino-3-methyl-1-oxopentan-2-yl)amino)-5-guanidino-1-oxopentan-2-yl)amino)-1-oxohexan-2-yl)-1-(2-(naphthalen-1-yl)acetyl)pyrrolidine-2-carboxamide] ({Acetyl(1-naphthyl)}-PKRI-NH2) | 60 | –
N=C(N)NCCC[C@H](NC(=O)[C@H](CCCNC(=N)N)NC(=O)[C@H](CCCCN)NC(=O)[C@@H]1CCCN1C(=O)Cc1cccc2ccccc12)C(N)=O [Compound 25, (S)—N—((S)-6-amino-1-(((S)-1-(((S)-1-amino-5-guanidino-1-oxopentan-2-yl)amino)-5-guanidino-1-oxopentan-2-yl)amino)-1-oxohexan-2-yl)-1-(2-(naphthalen-1-yl)acetyl)pyrrolidine-2-carboxamide] ({Acetyl(1-naphthyl)}-PKRR-NH2) | 40 | –
C#CC[C@H](NC(=O)[C@H](CCCNC(=N)N)NC(=O)[C@H](CCCCN)NC(=O)[C@@H]1CCCN1C(=O)Cc1cccc2ccccc12)C(N)=O [Compound 26, (S)—N—((S)-6-amino-1-(((S)-1-(((S)-1-amino-1-oxopent-4-yn-2-yl)amino)-5-guanidino-1-oxopentan-2-yl)amino)-1-oxohexan-2-yl)-1-(2-(naphthalen-1-yl)acetyl)pyrrolidine-2-carboxamide] ({Acetyl(1-naphthyl)}-PKR[Pra]-NH2) | 90 | –
N=C(N)NCCC[C@H](NC(=O)[C@H](CCCNC(=N)N)NC(=O)[C@H](CCCNC(=N)N)NC(=O)[C@H](CCC(N)=O)NC(=O)[C@H](CCCNC(=N)N)NC(=O)[C@H](CCCNC(=N)N)NC(=O)[C@H](CCCCN)NC(=O)[C@H](CCCCN)NC(=O)[C@H](CCCNC(=N)N)NC(=O)CNC(=O)[C@H](CCCNC(=N)N)NC(=O)[C@H](CCCCN)NC(=O)[C@@H]1CCCN1C(=O)Cc1ccc(O)cc1)C(=O)O [Compound 32, (2-(4-hydroxyphenyl)acetyl)-L-prolyl-L-lysyl-L-arginylglycyl-L-arginyl-L-lysyl-L-lysyl-L-arginyl-L-arginyl-L-glutaminyl-L-arginyl-L-arginyl-L-arginine] | – | 230 ± 30
N=C(N)NCCC[C@H](NC(=O)[C@H](CCCNC(=N)N)NC(=O)[C@H](CCCNC(=N)N)NC(=O)[C@H](CCCNC(=N)N)NC(=O)[C@H](CCCNC(=N)N)NC(=O)[C@H](CCCNC(=N)N)NC(=O)[C@H](CCCCN)NC(=O)[C@@H]1CCCN1C(=O)Cc1cccc2ccccc12)C(N)=O [Compound 34, (S)—N-((6S,9S,12S,15S,18S,21S,24S)-1,28-diamino-6-carbamoyl-9,12,15,18,21-pentakis(3-guanidinopropyl)-1-imino-8,11,14,17,20,23-hexaoxo-2,7,10,13,16,19,22-heptaazaoctacosan-24-yl)-1-(2-(naphthalen-1-yl)acetyl)pyrrolidine-2-carboxamide] ({Acetyl(1-naphthyl)}-PKRRRRRR-NH2) | – | 68
NCCCC[C@H](NC(=O)[C@@H]1CCCN1C(=O)Cc1cccc2ccccc12)C(=O)N[C@@H](CCC(=O)O)C(N)=O [Compound 39, (S)-5-amino-4-((S)-6-amino-2-((S)-1-(2-(naphthalen-1-yl)acetyl)pyrrolidine-2-carboxamido)hexanamido)-5-oxopentanoic acid] | – | 5760
N=C(N)NCCC[C@H](NC(=O)[C@H](CCCCN)NC(=O)[C@@H]1CCCN1C(=O)Cc1cccc2ccccc12)C(=O)N[C@@H](Cc1c[nH]c2ccccc12)C(N)=O [Compound 43] ({Acetyl(1-naphthyl)}-PKRW-NH2) | 95 ± 26 | –
N=C(N)NCCC[C@H](NC(=O)[C@H](CCCCN)NC(=O)[C@@H]1CCCN1C(=O)Cc1cccc2ccccc12)C(=O)N[C@@H](Cc1ccc(O)cc1)C(N)=O [Compound 44, (S)—N—((S)-6-amino-1-(((S)-1-(((S)-1-amino-3-(4-hydroxyphenyl)-1-oxopropan-2-yl)amino)-5-guanidino-1-oxopentan-2-yl)amino)-1-oxohexan-2-yl)-1-(2-(naphthalen-1-yl)acetyl)pyrrolidine-2-carboxamide] ({Acetyl(1-naphthyl)}-PKRY-NH2) | 79 ± 13 | –
N=C(N)NCCC[C@H](NC(=O)[C@H](CCCCN)NC(=O)[C@@H]1CCCN1C(=O)[C@@H](NCCc1ccc(O)cc1)c1ccc(O)cc1)C(N)=O [Compound 47, (S)—N—((S)-6-amino-1-(((S)-1-amino-5-guanidino-1-oxopentan-2-yl)amino)-1-oxohexan-2-yl)-1-((S)-2-((4-hydroxyphenethyl)amino)-2-(4-hydroxyphenyl)acetyl)pyrrolidine-2-carboxamide] | > 100000 | –
